Experiments:
[1] = test system: antibodies in sera from SARS patients (sera 1a, 1b, 2, 6, 37, 62, London, SARS-yellow, SARS-green); format: binding, human; parameters: Binding of serum 6 to linear peptides of protein X1 of SARS-CoV Urbani / Binding of serum 37 to linear peptides of protein X1 of SARS-CoV Urbani / Binding of serum 6 to looped/cyclic peptide (PEPSCAN-ELISA) / Binding of serum 37 to looped/cyclic peptide (PEPSCAN-ELISA) / Binding of serum 37 to looped/cyclic peptides of protein X1 of SARS-CoV Urbani / Binding of serum 6 to linear peptides of protein X2 / Binding of serum 37 to linear peptides of protein X2 / Binding of serum 37 to looped/cyclic peptides of protein X2 of SARS-CoV Urbani / Binding of serum 6 to linear peptides of protein M of SARS-CoV Urbani / Binding of serum 37 to linear peptides of protein M of SARS-CoV Urbani / Binding of serum 6 to looped/cyclic peptides of protein M of SARS-CoV Urbani / Binding of serum 37 to looped/cyclic peptides of protein M of SARS-CoV Urbani / Binding of serum 6 to linear peptides of protein X3 of SARS-CoV Urbani / Binding of serum 37 to linear peptides of protein X3 of SARS-CoV Urbani / Binding of serum 37 to looped/cyclic peptides of protein X3 of SARS-CoV Urbani / Binding of serum 6 to linear peptides of protein X4 of SARS-CoV Urbani / Binding of serum 37 to linear peptides of protein X4 of SARS-CoV Urbani / Binding of serum 37 to looped/cyclic peptides of protein X4 of SARS-CoV Urbani / Binding of serum 6 to linear peptides of protein X5 of SARS-CoV Urbani / Binding of serum 37 to linear peptides of protein X5 of SARS-CoV Urbani / Binding of serum 37 to looped/cyclic peptides of protein X5 of SARS-CoV Urbani / Binding of serum 6 to linear peptides of protein N of SARS-CoV Urbani / Binding of serum 37 to linear peptides of protein N of SARS-CoV Urbani / Binding of serum 6 to linear peptide (PEPSCAN-ELISA) / Binding of serum 1a to looped/cyclic peptides of protein N of SARS-CoV Urbani / Binding of serum 1b to looped/cyclic peptides of protein N of SARS-CoV Urbani / Binding of serum 2 to looped/cyclic peptides of protein N of SARS-CoV Urbani / Binding of serum 6 to looped/cyclic peptides of protein N of SARS-CoV Urbani / Binding of serum 37 to looped/cyclic peptides of protein N of SARS-CoV Urbani / Binding of serum 62 to looped/cyclic peptides of protein N of SARS-CoV Urbani / Binding of serum London to looped/cyclic peptides of protein N of SARS-CoV Urbani / Binding of serum SARS-green to looped/cyclic peptides of protein N of SARS-CoV Urbani: unit not given here
[2] = test system: control sera (pooled serum of ten healthy LUMC hospital workers; commercial negative donor pooled serum from the Dutch bloodbank); format: binding, human; parameters: Binding of Control serum LUMC to linear peptides / Binding of Control serum Blood-bank to linear peptides / Binding of Control serum LUMC to looped peptides / Binding of Control Serum Blood-Bank to Looped peptides / Binding of Control serum LUMC to linear peptides of the protein M of SARS-CoV Urbani / Binding of Control serum Blood-bank to linear peptides of the protein M of SARS-CoV Urbani / Binding of Control serum LUMC to looped peptides of the protein M of SARS-CoV Urbani / Binding of Control Serum Blood-Bank to Looped peptides of the protein M of SARS-CoV Urbani: unit not given here
[3] = test system: rabbit serum obtained by immunizing a rabbit with the SARS-CoV strain Frankfurt 1; format: binding; parameters: Binding of a rabbit serum to linear peptides / Binding of a rabbit serum to looped peptides / Rabbit serum linear peptides / Rabbit serum looped peptides / Binding of a rabbit serum to linear peptides of protein N of SARS-CoV Urbani (Rabbit serum linear peptides) / Binding of a rabbit serum to looped/cyclic peptides of protein N of SARS-CoV Urbani (Rabbit serum looped peptides): unit not given here

With TAWLCALGKVLPFHR the “Binding of serum 1a to linear peptides of protein X5 of SARS-CoV Urbani” value [1] was 0.7, the “Binding of serum 1a to looped/cyclic peptides of protein X5 of SARS-CoV Urbani” value [1] was 0.4 and the “Binding of serum 1b to linear peptides of protein X5 of SARS-CoV Urbani” value [1] was 0.5. The “Binding of serum 1b to looped/cyclic peptides of protein X5 of SARS-CoV Urbani” value [1] was 0.3, the “Binding of serum 2 to linear peptides of protein X5 of SARS-CoV Urbani” value [1] was 0.6 and the “Binding of serum 2 to looped/cyclic peptides of protein X5 of SARS-CoV Urbani” value [1] was 0.6. For the same sequence, the “Binding of serum 6 to linear peptides of protein X5 of SARS-CoV Urbani” value [1] was 0.5, the “Binding of serum 6 to looped/cyclic peptides of protein X5 of SARS-CoV Urbani” value [1] was 0.9 and the “Binding of serum 37 to linear peptides of protein X5 of SARS-CoV Urbani” value [1] was 0.7. The “Binding of serum 37 to looped/cyclic peptides of protein X5 of SARS-CoV Urbani” value [1] was 0.4, the “Binding of serum 62 to linear peptides of protein X5 of SARS-CoV Urbani” value [1] was 0.7 and the “Binding of serum 62 to looped/cyclic peptides of protein X5 of SARS-CoV Urbani” value [1] was 0.7. For the same sequence, the “Binding of serum London to linear peptides of protein X5 of SARS-CoV Urbani” value [1] was 0.6, the “Binding of serum London to looped/cyclic peptides of protein X5 of SARS-CoV Urbani” value [1] was 1.3 and the “Binding of serum SARS-green to linear peptides of protein X5 of SARS-CoV Urbani” value [1] was 0.7. The “Binding of serum SARS-green to looped/cyclic peptides of protein X5 of SARS-CoV Urbani” value [1] was 0.2, the “Binding of serum SARS-yellow to linear peptides of protein X5 of SARS-CoV Urbani” value [1] was 0.3 and the “Binding of serum SARS-yellow to looped/cyclic peptides of protein X5 of SARS-CoV Urbani” value [1] was 0.8. For the same sequence, the “Binding of Control Serum Blood-Bank to Looped peptides” value [2] was 0.4, the “Binding of Control serum Blood-bank to linear peptides” value [2] was 0.7 and the “Binding of Control serum LUMC to linear peptides” value [2] was 0.4. For the same sequence, the “Binding of Control serum LUMC to looped peptides” value [2] was 0.6, the “Rabbit serum linear peptides” value [3] was 0.7 and the “Rabbit serum looped peptides” value [3] was 0.8.

With TVSQIQLSLLKVTAF the “Binding of serum 1a to linear peptides of protein X2” value [1] was 0.5, the “Binding of serum 1a to looped/cyclic peptides of protein X2 of SARS-CoV Urbani” value [1] was 0.5 and the “Binding of serum 1b to linear peptides of protein X2” value [1] was 0.4. For the same sequence, the “Binding of serum 1b to looped/cyclic peptides of protein X2 of SARS-CoV Urbani” value [1] was 0.5, the “Binding of serum 2 to linear peptides of protein X2” value [1] was 0.4 and the “Binding of serum 2 to looped/cyclic peptides of protein X2 of SARS-CoV Urbani” value [1] was 0.4. For the same sequence, the “Binding of serum 6 to linear peptides of protein X2” value [1] was 0.5, the “Binding of serum 6 to looped/cyclic peptides of protein X2 of SARS-CoV Urbani” value [1] was 1.0 and the “Binding of serum 37 to linear peptides of protein X2” value [1] was 0.6. For the same sequence, the “Binding of serum 37 to looped/cyclic peptides of protein X2 of SARS-CoV Urbani” value [1] was 0.4, the “Binding of serum 62 to linear peptides of protein X2” value [1] was 0.4 and the “Binding of serum 62 to looped/cyclic peptides of protein X2 of SARS-CoV Urbani” value [1] was 0.6. The “Binding of serum London to linear peptides of protein X2” value [1] was 0.3, the “Binding of serum London to looped/cyclic peptides of protein X2 of SARS-CoV Urbani” value [1] was 1.4 and the “Binding of serum SARS-green to linear peptides of protein X2” value [1] was 0.1. The “Binding of serum SARS-green to looped/cyclic peptides of protein X2 of SARS-CoV Urbani” value [1] was 0.4, the “Binding of serum SARS-yellow to linear peptides of protein X2” value [1] was 0.6 and the “Binding of serum SARS-yellow to looped/cyclic peptides of protein X2 of SARS-CoV Urbani” value [1] was 0.7. For the same sequence, the “Binding of Control Serum Blood-Bank to Looped peptides” value [2] was 0.7, the “Binding of Control serum Blood-bank to linear peptides” value [2] was 0.5 and the “Binding of Control serum LUMC to linear peptides” value [2] was 0.6. The “Binding of Control serum LUMC to looped peptides” value [2] was 0.7, the “Binding of a rabbit serum to linear peptides” value [3] was 0.6 and the “Binding of a rabbit serum to looped peptides” value [3] was 0.5.

— patent publication US20070128217A1 (priority 2003, published 2007)
